Experimental data published in patent US7566459B2, “Modified mycobacterium tuberculosis strains and uses thereof” (priority 2005, dated 2009).
No end group written: not given here. *: point of attachment. Palmitoyl = CCCCCCCCCCCCCCCC(=O)*

Assays:
[1] = tested on: RAW264.7 cells; format: cell-based, murine
[2] = tested on: RAW264.7 cells; format: cell-based, murine; remark: listed apart in the source
[3] = tested on: bone marrow derived macrophages (BMDM); format: cell-based, mice
[4] = tested on: BMDM; assay: cells; format: cell-based, mice; details: Mus musculus, read-out: inhibition of TNFα production (as a measure of protein synthesis)
[5] = biological target: T1, human TLR2 (Homo sapiens, UniProt O60603); format: cell-based
T1 construct: using an HEK293 cell line stably transfected with cDNA encoding human TLR2
T1 sequence (O60603 21-784): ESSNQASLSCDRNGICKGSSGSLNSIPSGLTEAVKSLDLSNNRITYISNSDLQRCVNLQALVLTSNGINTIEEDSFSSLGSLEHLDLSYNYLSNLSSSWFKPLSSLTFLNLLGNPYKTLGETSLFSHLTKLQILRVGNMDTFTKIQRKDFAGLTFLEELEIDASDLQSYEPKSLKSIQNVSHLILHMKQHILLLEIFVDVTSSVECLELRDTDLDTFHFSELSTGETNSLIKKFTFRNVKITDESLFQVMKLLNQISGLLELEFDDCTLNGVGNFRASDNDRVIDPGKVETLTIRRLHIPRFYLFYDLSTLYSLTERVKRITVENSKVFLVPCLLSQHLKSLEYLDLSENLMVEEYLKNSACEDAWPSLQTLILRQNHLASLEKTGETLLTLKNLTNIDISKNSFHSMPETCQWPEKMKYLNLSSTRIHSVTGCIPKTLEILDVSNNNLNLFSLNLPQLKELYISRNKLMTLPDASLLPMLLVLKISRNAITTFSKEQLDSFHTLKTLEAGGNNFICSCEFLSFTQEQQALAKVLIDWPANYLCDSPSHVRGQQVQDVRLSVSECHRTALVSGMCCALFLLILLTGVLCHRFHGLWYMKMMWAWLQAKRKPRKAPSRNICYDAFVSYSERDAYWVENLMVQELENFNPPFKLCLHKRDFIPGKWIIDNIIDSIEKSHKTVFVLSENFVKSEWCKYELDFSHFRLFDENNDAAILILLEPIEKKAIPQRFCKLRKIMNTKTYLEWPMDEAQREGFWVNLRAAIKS

(S)-[2,3-Bis(palmitoyloxy)-(2-RS)-propyl]-N-palmitoyl-(R)-Cys-(S)-Ser-(S)-Lys4-OH, 3HCl (Palmitoyl-CSKKKK-OH; not fully specified (residue 1); also: 3 HCl salt) [Pam3CSK4, synthetic triacylated hexapeptide, TLR2/TLR1 agonist]
inhibition of IFNγ induction of surface MHC class II [1]: greater than 90% | IFNγ induction of class II transactivator (CIITA) mRNA [2]: potently inhibited

C[C@@H]1C[C@@H]([C@H](O)CC2CC(=O)NC(=O)C2)C(=O)[C@@H](C)C1 [cycloheximide]
effect on ability of wild-type or ΔlspA Mycobacterium tuberculosis to inhibit IFNγ induction of CIITA gene expression [3]: prevented | inhibition at 0.5 µM [4]: ~90%

(S)-[2,3-Bis(palmitoyloxy)-(2-RS)-propyl]-(R)-Cys-(S)-Ser-(S)-Lys4×3 CF3COOH (CSKKKK; not fully specified (residue 1); also: 3 CF3COOH salt) [Pam2CSK4, diacylated analog of Pam3CSK4]
activation of 293-TLR2 cells / secretion of IL-8 (in words) [5]: significant amounts of IL-8

macrophage-activating lipopeptide-2
activation of 293-TLR2 cells / secretion of IL-8 (in words) [5]: significant amounts of IL-8
